ChEMBL document CHEMBL5728428, “Bicyclic lactams and methods of use thereof” (2021)

Molecular target: T1, Receptor-interacting serine/threonine-protein kinase 1 (Homo sapiens, UniProt Q13546)
T1 sequence (Q13546 whole entry): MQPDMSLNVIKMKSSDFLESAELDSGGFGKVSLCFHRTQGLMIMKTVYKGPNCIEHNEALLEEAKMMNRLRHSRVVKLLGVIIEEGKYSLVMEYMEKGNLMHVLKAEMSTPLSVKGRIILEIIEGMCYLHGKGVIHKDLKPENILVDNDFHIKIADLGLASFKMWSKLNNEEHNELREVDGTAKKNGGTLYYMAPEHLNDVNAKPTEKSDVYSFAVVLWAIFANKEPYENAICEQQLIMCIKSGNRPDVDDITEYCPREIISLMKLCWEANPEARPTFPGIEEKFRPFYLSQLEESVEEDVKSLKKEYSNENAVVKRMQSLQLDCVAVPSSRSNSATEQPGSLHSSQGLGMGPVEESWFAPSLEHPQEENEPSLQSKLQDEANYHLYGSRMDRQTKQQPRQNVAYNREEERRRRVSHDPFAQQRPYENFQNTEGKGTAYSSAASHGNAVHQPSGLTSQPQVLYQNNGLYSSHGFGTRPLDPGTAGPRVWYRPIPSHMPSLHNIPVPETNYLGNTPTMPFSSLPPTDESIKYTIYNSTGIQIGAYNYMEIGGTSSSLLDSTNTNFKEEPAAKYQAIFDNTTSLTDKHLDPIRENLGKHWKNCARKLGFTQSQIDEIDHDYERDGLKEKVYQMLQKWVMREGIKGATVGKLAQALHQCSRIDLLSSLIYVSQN
Test: Biochemical Assay: The ability of the receptor interacting protein kinase (RIPK1) to catalyze the hydrolysis of adenosine-5′-triphosphate (ATP) is monitored using the Transcreener ADP (adenosine-5′-diphosphate) assay (BellBrook Labs).

SMILES: CN1C(=O)[C@@H](NC(=O)c2n[nH]c3c2CC(C)(C)OC3)COc2ccccc21
- Ki: 469 nM
